The values that follow are results of earlier work, collected in patent US20040116403A1, “Superoxide dismutase mimics for the treatment of ocular disorders and diseases” (priority 2002, published 2004).

One data set relates to IL-6 and MIP-2. The settings on record: rat stroke model; administration after induction of cerebral ischemia.
For data set [1] the following is noted: rat stroke model; given either before or after induction of cerebral ischemia.

Turning to `CCn1cc[n+](CC)c1C1=C2C=CC3=[N+]2[Mn]24[n]5c1ccc5C(c1n(CC)cc[n+]1CC)=C1C=CC(=[N+]12)C(c1n(CC)cc[n+]1CC)=c1ccc([n]14)=C3c1n(CC)cc[n+]1CC` [Compound 1], in the data set on IL-6 and MIP-2, the “expression of pro-inflammatory proteins such as IL-6 and MIP-2” value was “attenuation of the increased expression of pro-inflammatory proteins”.

For `CC[n+]1ccccc1C1=C2C=CC3=[N+]2[Mn]24[n]5c1ccc5C(c1cccc[n+]1CC)=C1C=CC(=[N+]12)C(c1cccc[n+]1CC)=c1ccc([n]14)=C3c1cccc[n+]1CC` [Compound 2], the infarct volume entry in data set [1] is on record as “reduces infarct volume”.
